Test results reported in article PMC12802263 (mBio, 2025).

Tests used:
DncV = DncV (Vibrio cholerae, UniProt Q9KVG7); assay: biochemical
CapV = CapV (Vibrio cholerae, UniProt Q9KVG8); details: 50 mM Na3PO4, pH 7.4, 300 mM NaCl, 10% glycerol, 37 °C
CapV, sequence (Q9KVG8 whole entry, looked up): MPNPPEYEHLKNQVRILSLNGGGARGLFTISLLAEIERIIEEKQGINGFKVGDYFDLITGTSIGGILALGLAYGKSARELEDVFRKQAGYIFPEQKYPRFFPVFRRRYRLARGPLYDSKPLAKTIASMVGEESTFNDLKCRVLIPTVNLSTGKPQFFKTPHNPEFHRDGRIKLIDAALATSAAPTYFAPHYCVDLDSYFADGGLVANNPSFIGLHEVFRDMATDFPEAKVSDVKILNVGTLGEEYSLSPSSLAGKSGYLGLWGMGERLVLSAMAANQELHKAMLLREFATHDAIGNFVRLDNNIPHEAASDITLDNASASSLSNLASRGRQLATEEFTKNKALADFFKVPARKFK

DncV, sequence (Q9KVG7 whole entry, looked up): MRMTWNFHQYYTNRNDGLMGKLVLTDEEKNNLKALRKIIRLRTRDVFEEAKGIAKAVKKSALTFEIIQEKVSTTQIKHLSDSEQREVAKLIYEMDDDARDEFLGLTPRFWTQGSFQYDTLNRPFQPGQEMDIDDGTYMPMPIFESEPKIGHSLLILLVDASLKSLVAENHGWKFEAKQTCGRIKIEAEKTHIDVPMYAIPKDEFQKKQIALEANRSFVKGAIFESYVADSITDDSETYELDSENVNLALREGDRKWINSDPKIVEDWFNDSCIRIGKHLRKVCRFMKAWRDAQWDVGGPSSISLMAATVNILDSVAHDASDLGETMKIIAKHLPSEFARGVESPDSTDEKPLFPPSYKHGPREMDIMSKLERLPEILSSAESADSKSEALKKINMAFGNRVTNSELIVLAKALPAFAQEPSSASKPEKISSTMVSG

| SMILES | Kd (DncV) | fluorogenic phospholipase assay (ex 550 / em 591 nm) (CapV) |
| --- | --- | --- |
| Nc1nc2c(ncn2[C@@H]2O[C@H](COP(=O)(O)OP(=O)(O)OP(=O)(O)O)[C@@H](O)[C@H]2O)c(=O)[nH]1 [GTP] | 2.63 µM | – |
| CCCC(=O)Oc1ccc2nc3ccc(=O)cc-3oc2c1 [Resorufin butyrate] | – | phospholipase activity of the proteins CapV and CapV^S62A was detected using the fluorescent substrate Resorufin |
| Nc1nc2c(c(=O)[nH]1)N[C@@H](CNc1ccc(C(=O)N[C@@H](CCC(=O)O)C(=O)O)cc1)CN2 [THF, tetrahydrofolate] | 3.59 µM | – |
